The source of these data is patent US20250195612A1, “Coversin for use in the treatment of rheumatic diseases” (Volution Immuno Pharmaceuticals SA, priority 2018, published 2025).

The target in one assay is Human BLT1. As to conditions: high affinity receptor; ref. [12]; cited from earlier work.
Another assay concerns Human BLT2. The conditions noted are these: cited from earlier work.
The test system of assay [1] is K/BxN serum-transfer arthritis in C57BL/6 mice. Description: K/BxN serum transfer arthritis model, treatment of established disease (Example 2). The format is in vivo, mouse (C57BL/6). As to conditions: 50 mg/kg orally once daily, day 4 to day 14. The protocol:
The K/BxN serum-transfer arthritis (STA) model was used to test whether established arthritic disease could be ameliorated by Coversin.
(§1) Experimental RA was induced using the protocol described by. Five mice were tested in each treatment group.
On day 0 C57BL/6 mice were assessed for clinical score and paw thickness using standard protocols. All mice received an injection of K/BxN serum on day 0 and on day 2. The treatment was administered every day from day 4 to day 14. On days where serum was also injected (day 0 and day 2) drug was administered immediately after the serum injection. Clinical score and paw thickness were measured every other day.
Treatment groups were as follows: • Group 1: PBS (vehicle) • Group 2: Treatment (PAS-L Coversin 20 mg/kg subcutaneous once daily) • Group 3: Treatment (Zileuton 50 mg/kg orally once daily) • Group 4: Treatment (PAS-Coversin 20 mg/kg subcutaneous once daily)

For assay [2] the test system is unchanged. Description: K/BxN serum transfer arthritis model, prophylactic (Example 1). As to conditions: 50 mg/kg orally once daily, day 0 to day 14. The format is in vivo, mouse (C57BL/6).
Description: The K/BxN serum-transfer arthritis model was used to test whether development of arthritis could be prevented by Coversin. This model is a well-known murine model in which the immunological mechanisms occurring in rheumatoid arthritis (RA) are induced by transferring serum from arthritic transgenic K/BxN mice to naive mice. In the absence of treatment arthritic symptoms occur a few days later. This model is recognised to be highly relevant for RA, especially for the preclinical screening of new therapeutic targets for RA and perhaps other forms of inflammatory arthritis.
as §1
On day 0 C57BL/6 mice were assessed for clinical score and paw thickness using standard protocols. All mice received an injection of K/BxN serum on day 0 and on day 2. Each treatment was administered every day from day 0 to day 14. On days where serum was also injected (day 0 and day 2) drug was administered immediately after the serum injection. Clinical score and paw thickness were measured every other day.
Treatment groups were as follows: • Group 1: PBS (vehicle, subcutaneous, q24h) • Group 2: Treatment (Coversin 5 mg/kg subcutaneous, q12h) • Group 3: Treatment (Zileuton 50 mg/kg orally once daily) • Group 4: Treatment (PAS-Coversin 20 mg/kg subcutaneous, once daily)

One may read the Kd as a measure of binding affinity in units of concentration. As for `CCCCC/C=C\C[C@@H](O)/C=C/C=C/C=C\[C@@H](O)CCCC(=O)O` [LTB4, Leukotriene B4], the values for the dissociation constant (Kd) on Human BLT1 and on Human BLT2 (human BLT2) were 0.39 to 1.5 nM and 23 nM, respectively. For the same compound, the “lower affinity for LTB4 than BLT1” value in the assay with Human BLT2 (BLT2 compared with BLT1) is given as 20 fold.

In the case of `CC(c1cc2ccccc2s1)N(O)C(N)=O` (centres unmarked) [Zileuton, N-[1-(1-benzothien-2-yl)ethyl]-N-hydroxyurea], the “day of maximum clinical score” value in assay [1] came to 6 days. Further, the development of arthritis entry in assay [2] is “partially ameliorates the development of arthritis”.
